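Five concentrations, 48 hours, 96-well plates. The concentration for 50% growth inhibition is given as GI50.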 Calls of active or inactive are those of the source. Cut-off read from the data, not from the text of the source: active = GI50 up to about 1.1 µM and inactive = higher.
How the values were obtained:
Test in all cases: NCI anticancer screen, dose series, 48 h
SNB-75 = test system: SNB-75
LOX IMVI = test system: LOX IMVI
LXFL 529 = test system: LXFL 529
COLO 205 = test system: COLO 205
DMS-114 = test system: DMS-114
SF-268 = test system: SF-268
UACC-62 = test system: UACC-62
KM12 = test system: KM12
OVCAR-4 = test system: OVCAR-4
HT-29 = test system: HT-29
HOP-62 = test system: HOP-62
DLD-1 = test system: DLD-1
UO-31 = test system: UO-31
NCI-H522 = test system: NCI-H522
RXF 393 = test system: RXF 393
TK-10 = test system: TK-10
HOP-92 = test system: HOP-92
HCT-15 = test system: HCT-15
RPMI-8226 = test system: RPMI-8226
SF-295 = test system: SF-295
SK-MEL-2 = test system: SK-MEL-2
SW-620 = test system: SW-620
XF498 = test system: XF498
CCRF-CEM = test system: CCRF-CEM
M19-MEL = test system: M19-MEL
M14 = test system: M14
EKVX = test system: EKVX
OVCAR-5 = test system: OVCAR-5
SNB-78 = test system: SNB-78
IGROV-1 = test system: IGROV-1
Malme-3M = test system: Malme-3M
U-251 = test system: U-251
SK-OV-3 = test system: SK-OV-3
KM-20L2 = test system: KM-20L2
SK-MEL-28 = test system: SK-MEL-28
K562 = test system: K562
CAKI-1 = test system: CAKI-1
A549 = test system: A549
SK-MEL-5 = test system: SK-MEL-5
786-0 = test system: 786-0
SF-539 = test system: SF-539
NCI-H226 = test system: NCI-H226
UACC-257 = test system: UACC-257
MOLT-4 = test system: MOLT-4
OVCAR-8 = test system: OVCAR-8
HCC 2998 = test system: HCC 2998
NCI-H23 = test system: NCI-H23
HOP-18 = test system: HOP-18
SNB-19 = test system: SNB-19
A498 = test system: A498
SN12C = test system: SN12C
OVCAR-3 = test system: OVCAR-3
NCI-H460 = test system: NCI-H460
HCT-116 = test system: HCT-116
NCI/ADR-RES = test system: NCI/ADR-RES
DMS-273 = test system: DMS-273
HL-60 = test system: HL-60
MCF7 = test system: MCF7

In the case of `Cc1cc(O)c(C(=O)O)c2c1C(=O)c1c(O)c(OCC(O)C(O)C(O)C(O)CO)c(O)c(O)c1C2=O.NCCNCCO` (configuration not stated), the GI50 (SNB-75) is reported as > 100 µM (inactive), the GI50 (LOX IMVI) is reported as > 100 µM (inactive) and the GI50 (LXFL 529) is reported as > 100 µM (inactive). The GI50 (COLO 205) was > 100 µM (inactive), the GI50 (DMS-114) was > 100 µM (inactive) and the GI50 (SF-268) was > 100 µM (inactive). The GI50 (UACC-62) was > 100 µM (inactive), the GI50 (KM12) was 39.9 µM (inactive) and the GI50 (OVCAR-4) was > 100 µM (inactive). For the same compound, the GI50 (HT-29) was > 100 µM (inactive), the GI50 (HOP-62) was > 100 µM (inactive) and the GI50 (DLD-1) was > 100 µM (inactive). For the same compound, the GI50 (UO-31) was > 100 µM (inactive), the GI50 (NCI-H522) was > 100 µM (inactive) and the GI50 (RXF 393) was > 100 µM (inactive). For the same compound, the GI50 (TK-10) was > 100 µM (inactive), the GI50 (HOP-92) was > 100 µM (inactive) and the GI50 (HCT-15) was > 100 µM. For the same compound, the GI50 (RPMI-8226) was > 100 µM (inactive), the GI50 (SF-295) was > 100 µM (inactive) and the GI50 (SK-MEL-2) was > 100 µM (inactive). The GI50 (SW-620) was > 100 µM (inactive), the GI50 (XF498) was > 100 µM (inactive) and the GI50 (CCRF-CEM) was > 100 µM (inactive). For the same compound, the GI50 (M19-MEL) was > 100 µM (inactive), the GI50 (M14) was > 100 µM (inactive) and the GI50 (EKVX) was > 100 µM (inactive). For the same compound, the GI50 (OVCAR-5) was > 100 µM (inactive), the GI50 (SNB-78) was > 100 µM (inactive) and the GI50 (IGROV-1) was > 100 µM (inactive). The GI50 (Malme-3M) was > 100 µM (inactive), the GI50 (U-251) was > 100 µM (inactive) and the GI50 (SK-OV-3) was > 100 µM (inactive). The GI50 (KM-20L2) was > 100 µM (inactive), the GI50 (SK-MEL-28) was > 100 µM (inactive) and the GI50 (K562) was > 100 µM (inactive). The GI50 (CAKI-1) was > 100 µM (inactive), the GI50 (A549) was > 100 µM (inactive) and the GI50 (SK-MEL-5) was > 100 µM (inactive). The GI50 (786-0) was > 100 µM (inactive), the GI50 (SF-539) was > 100 µM (inactive) and the GI50 (NCI-H226) was > 100 µM (inactive). For the same compound, the GI50 (UACC-257) was > 100 µM (inactive), the GI50 (MOLT-4) was > 100 µM (inactive) and the GI50 (OVCAR-8) was > 100 µM (inactive). The GI50 (HCC 2998) was > 100 µM (inactive), the GI50 (NCI-H23) was > 100 µM (inactive) and the GI50 (HOP-18) was > 100 µM (inactive). The GI50 (SNB-19) was > 100 µM (inactive), the GI50 (A498) was > 100 µM (inactive) and the GI50 (SN12C) was > 100 µM (inactive). The GI50 (OVCAR-3) was > 100 µM (inactive).
With `CCCCCCc1ccc(O)cc1O` [HEXYLRESORCINOL] the GI50 (SNB-75) was 28.8 µM (inactive), the GI50 (LOX IMVI) was > 100 µM (inactive) and the GI50 (COLO 205) was > 100 µM (inactive). For the same compound, the GI50 (SF-268) was 87.3 µM (inactive), the GI50 (UACC-62) was 34.4 µM (inactive) and the GI50 (KM12) was 62.2 µM (inactive). The GI50 (NCI-H460) was 58.3 µM (inactive), the GI50 (OVCAR-4) was 48.5 µM (inactive) and the GI50 (HT-29) was > 100 µM (inactive). The GI50 (HOP-62) was 57.8 µM (inactive), the GI50 (DLD-1) was 72.6 µM (inactive) and the GI50 (UO-31) was 24.4 µM (inactive). The GI50 (NCI-H522) was 36.1 µM (inactive), the GI50 (RXF 393) was > 75.2 µM (inactive) and the GI50 (HOP-92) was 30.6 µM (inactive). For the same compound, the GI50 (HCT-15) was 59.8 µM, the GI50 (RPMI-8226) was 32.1 µM (inactive) and the GI50 (SF-295) was 46.8 µM (inactive). For the same compound, the GI50 (SK-MEL-2) was 26.1 µM (inactive), the GI50 (SW-620) was > 100 µM (inactive) and the GI50 (XF498) was > 65.3 µM (inactive). The GI50 (HCT-116) was 53.5 µM (inactive), the GI50 (CCRF-CEM) was 32 µM (inactive) and the GI50 (M19-MEL) was 42.8 µM (inactive). For the same compound, the GI50 (EKVX) was > 64.7 µM (inactive), the GI50 (OVCAR-5) was > 65.6 µM (inactive) and the GI50 (SNB-78) was > 72.8 µM (inactive). The GI50 (NCI/ADR-RES) was 38.4 µM (inactive), the GI50 (IGROV-1) was 45.5 µM (inactive) and the GI50 (Malme-3M) was 48 µM (inactive). For the same compound, the GI50 (DMS-273) was > 72.6 µM (inactive), the GI50 (U-251) was 40.4 µM (inactive) and the GI50 (SK-OV-3) was > 100 µM (inactive). The GI50 (KM-20L2) was > 100 µM (inactive), the GI50 (SK-MEL-28) was > 71.9 µM (inactive) and the GI50 (K562) was 44.8 µM (inactive). The GI50 (A549) was 40.6 µM (inactive), the GI50 (SK-MEL-5) was 31.8 µM (inactive) and the GI50 (SF-539) was > 80.7 µM (inactive). The GI50 (NCI-H226) was 57.8 µM (inactive), the GI50 (UACC-257) was 39.5 µM (inactive) and the GI50 (MOLT-4) was 22.9 µM (inactive). For the same compound, the GI50 (OVCAR-8) was > 69 µM (inactive), the GI50 (HCC 2998) was > 100 µM (inactive) and the GI50 (NCI-H23) was 47.3 µM (inactive). The GI50 (HOP-18) was 28.2 µM (inactive), the GI50 (HL-60) was 30.8 µM (inactive) and the GI50 (SNB-19) was 43.7 µM (inactive). The GI50 (MCF7) was 81.1 µM (inactive), the GI50 (A498) was > 100 µM (inactive) and the GI50 (SN12C) was 66.4 µM (inactive). The GI50 (OVCAR-3) was 36.4 µM (inactive).
With `O=C1N[C@@H]2C(=C[C@H](O)[C@@H](O)[C@H]2O)c2cc3c(c(O)c21)OCO3` [NARCICLASINE] the GI50 (SNB-75) was 0.045 µM (active), the GI50 (LOX IMVI) was 0.045 µM (active) and the GI50 (SF-268) was 0.045 µM (active). For the same compound, the GI50 (UACC-62) was 0.045 µM (active), the GI50 (KM12) was 0.045 µM (active) and the GI50 (NCI-H460) was 0.045 µM (active). The GI50 (OVCAR-4) was 0.142 µM (active), the GI50 (HT-29) was 0.045 µM (active) and the GI50 (HOP-62) was 0.045 µM (active). The GI50 (DLD-1) was 0.045 µM (active), the GI50 (UO-31) was 0.045 µM (active) and the GI50 (HOP-92) was 0.045 µM (active). For the same compound, the GI50 (HCT-15) was 0.045 µM, the GI50 (RPMI-8226) was 0.045 µM (active) and the GI50 (SF-295) was 0.0634 µM (active). The GI50 (SK-MEL-2) was 0.045 µM (active), the GI50 (SW-620) was 0.045 µM (active) and the GI50 (XF498) was 0.045 µM (active). For the same compound, the GI50 (HCT-116) was 0.045 µM (active), the GI50 (CCRF-CEM) was 0.045 µM (active) and the GI50 (EKVX) was 0.045 µM (active). For the same compound, the GI50 (OVCAR-5) was 0.0632 µM (active), the GI50 (SNB-78) was 0.045 µM (active) and the GI50 (NCI/ADR-RES) was 0.045 µM (active). The GI50 (IGROV-1) was 0.045 µM (active), the GI50 (Malme-3M) was 0.045 µM (active) and the GI50 (DMS-273) was 0.045 µM (active). The GI50 (U-251) was 0.045 µM (active), the GI50 (SK-OV-3) was 0.045 µM (active) and the GI50 (KM-20L2) was 0.045 µM (active). The GI50 (SK-MEL-28) was 0.045 µM (active), the GI50 (K562) was 0.045 µM (active) and the GI50 (CAKI-1) was 0.045 µM (active). For the same compound, the GI50 (A549) was 0.045 µM (active), the GI50 (SK-MEL-5) was 0.045 µM (active) and the GI50 (SF-539) was 0.045 µM (active). For the same compound, the GI50 (NCI-H226) was 0.045 µM (active), the GI50 (UACC-257) was 0.045 µM (active) and the GI50 (MOLT-4) was 0.045 µM (active). The GI50 (OVCAR-8) was 0.045 µM (active), the GI50 (HCC 2998) was 0.045 µM (active) and the GI50 (NCI-H23) was 0.045 µM (active). The GI50 (HOP-18) was 0.0535 µM (active), the GI50 (HL-60) was 0.0646 µM (active) and the GI50 (SNB-19) was 0.045 µM (active). For the same compound, the GI50 (A498) was 0.045 µM (active), the GI50 (SN12C) was 0.045 µM (active) and the GI50 (OVCAR-3) was 0.045 µM (active).

From ChEMBL document CHEMBL1201862, “PubChem BioAssay data set” (2004)
